Test results: US20250282749A1 (Tango Therapeutics, Inc., priority 2022, published 2025)

Tests used:
Assay type in all cases: cell-based
[1] = test system: PRMT5 (SDMA) in HAP1 MTAP-intact cell line; test: SDMA in-cell western assay, HAP1 MTAP-intact cell line; settings: Homo sapiens, HAP1 MTAP-intact cell line (endogenous MTAP), read-out: Hap 1 MTAP intact IC50
Source text: (§1) HAP1 MTAP-intact is a cell line in which endogenous levels of MTAP are expressed, and HAP1 MTAP-deleted is an MTAP-null cell line.

[2] = test system: PRMT5 (SDMA) in HAP1 MTAP-deleted cell line; test: SDMA in-cell western assay, HAP1 MTAP-deleted cell line; settings: for IC50 / IC90: Homo sapiens, SDMA in-cell western, HAP1 MTAP-deleted (MTAP-null) cell line; for Hap1 MTAP intact/deleted ratio: ratio of SDMA in-cell western IC50 in HAP1 MTAP-intact to IC50 in HAP1 MTAP-deleted cell line
Source text: as §1

[3] = test system: HAP1 MTAP-deleted cell line; test: viability assay for the MTAP-deleted cell line; settings: Homo sapiens

For `Cc1cc(NC(=O)C(=O)N2C[C@@H](C)N(C(=O)C3(C)CC3)C[C@@H]2c2ccccc2)cnc1N` [Compound 143, N-(6-amino-5-methylpyridin-3-yl)-2-((2S,5R)-5-methyl-4-(1-methylcyclopropanecarbonyl)-2-phenylpiperazin-1-yl)-2-oxoacetamide], the IC50 [1] was greater than 50 nM, the IC50 [2] was 5 to 50 nM and the IC90 [2] was greater than 125 nM. For the same molecule, the “Hap1 MTAP intact/deleted ratio” value [2] was “C (an IC50 ratio of less than 15 fold)” and the IC50 [3] was less than 100 nM.
With `CC(C)OC(=O)N1C[C@@H](c2ccc(F)cc2)N(C(=O)C(=O)Nc2cnc(N)c(C3CC3)c2)C[C@@H]1C` (stereo in doubt) [Compound 151, isopropyl 4-(2-((6-amino-5-cyclopropylpyridin-3-yl)amino)-2-oxoacetyl)-5-(4-fluorophenyl)-2-methylpiperazine-1-carboxylate] the IC50 [1] was greater than 50 nM, the IC50 [2] was less than 5 nM and the IC90 [2] was less than 75 nM. For the same molecule, the “Hap1 MTAP intact/deleted ratio” value [2] was “B (an IC50 ratio greater than or equal to 15 fold but lower than 30 fold)” and the IC50 [3] was less than 100 nM.
For `CCc1cc(NC(=O)C(=O)N2C[C@H](C)N(C(=O)CC3CC3)C[C@H]2c2ccc(F)cc2)cnc1N` [Compound 73, N-(6-amino-5-ethyl-3-pyridyl)-2-[(2R,5S)-4-(2-cyclopropylacetyl)-2-(4-fluorophenyl)-5-methyl-piperazin-1-yl]-2-oxo-acetamide], the IC50 [1] was greater than 50 nM, the IC50 [2] was 5 to 50 nM and the IC90 [2] was 75 to 125 nM. For the same molecule, the “Hap1 MTAP intact/deleted ratio” value [2] was “B (an IC50 ratio greater than or equal to 15 fold but lower than 30 fold)” and the IC50 [3] was less than 100 nM.
Molecule `CCc1cc(NC(=O)C(=O)N2C[C@@H](C)N(C(=O)C(C)C)C[C@@H]2c2ccc(F)c(Cl)c2)cnc1N` [Compound 87, N-(6-amino-5-ethylpyridin-3-yl)-2-((2S,5R)-2-(3-chloro-4-fluorophenyl)-4-isobutyryl-5-methylpiperazin-1-yl)-2-oxoacetamide] has an IC50 [1] greater than 50 nM, an IC50 [2] of less than 5 nM and an IC90 [2] greater than 125 nM. For the same molecule, the “Hap1 MTAP intact/deleted ratio” value [2] was “A (an IC50 ratio greater than or equal to 30 fold)” and the IC50 [3] was less than 100 nM.
`C[C@@H]1CN(C(=O)C(=O)Nc2cnc(N)c3cn[nH]c23)[C@@H](c2ccccc2)CN1C` [Compound 57] gave an IC50 [1] greater than 50 nM, an IC50 [2] of less than 5 nM and an IC90 [2] of less than 75 nM. The “Hap1 MTAP intact/deleted ratio” value [2] was “B (an IC50 ratio greater than or equal to 15 fold but lower than 30 fold)” and the IC50 [3] was less than 100 nM.
In the case of `CC(C)C(=O)N1CCN(C(=O)C(=O)Nc2cnc(N)c3cn[nH]c23)[C@@H](c2ccccc2)C1` [Compound 126, (S)—N-(4-amino-1H-pyrazolo[4,3-c]pyridin-7-yl)-2-(4-isobutyryl-2-phenylpiperazin-1-yl)-2-oxoacetamide], the IC50 [1] is reported as greater than 50 nM, the IC50 [2] is reported as less than 5 nM and the IC90 [2] is reported as less than 75 nM. The “Hap1 MTAP intact/deleted ratio” value [2] was “A (an IC50 ratio greater than or equal to 30 fold)” and the IC50 [3] was 100 to 1000 nM.
Work on `CC(C)CN1C[C@@H](c2ccc(F)cc2)N(C(=O)C(=O)Nc2cnc(N)c(C3CC3)c2)C[C@H]1C` (single isomer, unassigned) [Compound 84] yielded an IC50 [1] greater than 50 nM, an IC50 [2] of 5 to 50 nM and an IC90 [2] of less than 75 nM. The “Hap1 MTAP intact/deleted ratio” value [2] was “A (an IC50 ratio greater than or equal to 30 fold)” and the IC50 [3] was less than 100 nM.
In the case of `CCc1cc(NC(=O)C(=O)N2C[C@@H](C)N(C(=O)C3(C(F)(F)F)CC3)C[C@@H]2c2ccccc2)cnc1N` [Compound 81, N-(6-amino-5-ethylpyridin-3-yl)-2-((2S,5R)-5-methyl-2-phenyl-4-(1-(trifluoromethyl)cyclopropanecarbonyl)piperazin-1-yl)-2-oxoacetamide], the IC50 [1] is reported as greater than 50 nM, the IC50 [2] is reported as 5 to 50 nM and the IC90 [2] is reported as 75 to 125 nM. For the same molecule, the “Hap1 MTAP intact/deleted ratio” value [2] was “B (an IC50 ratio greater than or equal to 15 fold but lower than 30 fold)” and the IC50 [3] was less than 100 nM.
Work on `C[C@@H]1CN(C(=O)C(=O)Nc2cnc(N)c3cn[nH]c23)[C@@H](c2ccccc2)CO1` [Compound 107] yielded an IC50 [1] greater than 50 nM, an IC50 [2] of less than 5 nM and an IC90 [2] of less than 75 nM. The “Hap1 MTAP intact/deleted ratio” value [2] was “A (an IC50 ratio greater than or equal to 30 fold)” and the IC50 [3] was 100 to 1000 nM.
`Cc1cc(NC(=O)C(=O)N2C[C@@H](C)N(C(=O)OC3(C)CC3)C[C@@H]2c2ccc(F)cc2)cnc1N` [Compound 120] showed an IC50 [1] greater than 50 nM, an IC50 [2] of 5 to 50 nM and an IC90 [2] of 75 to 125 nM. The “Hap1 MTAP intact/deleted ratio” value [2] was “B (an IC50 ratio greater than or equal to 15 fold but lower than 30 fold)” and the IC50 [3] was 100 to 1000 nM.
